A value given as a limit tells only on which side of the number the result lay.

The first experiment deals with purified human Hsp90. Nature of the experiment: Binding Assay: fluorescence polarization with BODIPY-labeled geldanamycin. To be noted: 5 μM compound, BODIPY-GM 10 nM, Hsp90 30 nM. Put shortly: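 Fluorescence polarization competition with BODIPY-geldanamycin (10 nM final) and human Hsp90 (30 nM final) in HEPES-KOH pH 7.3 buffer with molybdate, NP-40, DTT; 2% DMSO, overnight at room temperature. Read 485/530 nm; percent inhibition from mP normalized to DMSO controls, fluorescent-compound points excluded.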
As to `CC(C)n1nnnc1N1CCC(CCn2cnc(N)c3nc(Sc4cc5c(cc4Br)OCO5)nc2-3)CC1` [Example 613, 8-[(6-Bromo-1,3-benzodioxol-5-yl)thio]-3-{2-[1-(1-isopropyl-1 H-tetrazol-5-yl)piperidin-4-yl]ethyl}-3 H-purin-6-amine], the “% Inhibition at 5 μM Compound Concentration” value (“% Inhibition” for short) turned out to be 15.00%.
Turning to `CC(C)(C)n1nnnc1N1CCC(CCn2cnc(N)c3nc(Sc4cc5c(cc4Br)OCO5)nc2-3)CC1` [Example 615, 8-[(6-Bromo-1,3-benzodioxol-5-yl)thio]-3-{2-[1-(1-tert-butyl-1 H-tetrazol-5-yl)piperidin-4-yl]ethyl}-3 H-purin-6-amine], the “% Inhibition” value worked out at 13.00%.
As for `N=C(N)N1CCC(CCn2cnc(N)c3nc(Sc4cc5c(cc4Br)OCO5)nc2-3)CC1` [Example 617, 4-(2-{6-Amino-8-[(6-bromo-1,3-benzodioxol-5-yl)thio]-3 H-purin-3-yl}ethyl)piperidine-1-carboximidamide], the “% Inhibition” value is 83.00%.
On the same count and under the same terms, then `CCCNC(=N)N1CCC(CCn2cnc(N)c3nc(Sc4cc5c(cc4Br)OCO5)nc2-3)CC1` [Example 619, 4-(2-{6-Amino-8-[(6-bromo-1,3-benzodioxol-5-yl)thio]-3 H-purin-3-yl}ethyl)-N-propylpiperidine-1-carboximidamide], with 76.00%; and `CCC(CC)N1CCN(CCn2cnc(N)c3nc(Sc4cc(OC)ccc4OC)nc2-3)CC1` [Example 628, 8-[(2,5-Dimethoxyphenyl)thio]-3-{2-[4-(1-ethylpropyl)piperazin-1-yl]ethyl}-3 H-purin-6-amine], with 23.00%; and `COc1ccc(OC)c(Sc2nc3c(N)ncn(CCN4CCOCC4)c-3n2)c1` [Example 636, 8-[(2,5-Dimethoxyphenyl)thio]-3-(2-morpholin-4-ylethyl)-3 H-purin-6-amine], with 25.00%.
On the same count and under the same terms, then `CC(C)(C)OC(=O)N1CCC(Cn2cnc(N)c3nc(Sc4cc5c(cc4Br)OCO5)nc2-3)CC1` [Example 640, tert-Butyl 4-({6-amino-8-[(6-bromo-1,3-benzodioxol-5-yl)thio]-3 H-purin-3-yl}methyl)piperidine-1-carboxylate], with 19.00%; and `CC(C)(C)OC(=O)N1CCCC(Cn2cnc(N)c3nc(Sc4cc5c(cc4Br)OCO5)nc2-3)C1` (centres unmarked) [Example 642, tert-Butyl 3-({6-amino-8-[(6-bromo-1,3-benzodioxol-5-yl)thio]-3 H-purin-3-yl}methyl)piperidine-1-carboxylate], with 15.00%.

Staying with this experiment, now noted: BODIPY-GM 10 nM, Hsp90 30 nM.
`CC(C)n1nnnc1N1CCC(CCn2c(Sc3cc4c(cc3Br)OCO4)nc3c(N)ncnc32)CC1` [Example 612, 8-[(6-Bromo-1,3-benzodioxol-5-yl)thio]-9-{2-[1-(1-isopropyl-1 H-tetrazol-5-yl)piperidin-4-yl]ethyl}-9 H-purin-6-amine] returned an IC50 of 230 nM.
With `CC(C)(C)n1nnnc1N1CCC(CCn2c(Sc3cc4c(cc3Br)OCO4)nc3c(N)ncnc32)CC1` [Example 614, 8-[(6-Bromo-1,3-benzodioxol-5-yl)thio]-9-{2-[1-(1-tert-butyl-1 H-tetrazol-5-yl)piperidin-4-yl]ethyl}-9 H-purin-6-amine], the IC50 was 1800 nM.
Still for that read-out and setting: then `N=C(N)N1CCC(CCn2c(Sc3cc4c(cc3Br)OCO4)nc3c(N)ncnc32)CC1` [Example 616, 4-(2-{6-Amino-8-[(6-bromo-1,3-benzodioxol-5-yl)thio]-9 H-purin-9-yl}ethyl)piperidine-1-carboximidamide], with 90 nM.
Consider `CCCNC(=N)N1CCC(CCn2c(Sc3cc4c(cc3Br)OCO4)nc3c(N)ncnc32)CC1` [Example 618, 4-(2-{6-Amino-8-[(6-bromo-1,3-benzodioxol-5-yl)thio]-9 H-purin-9-yl}ethyl)-N-propylpiperidine-1-carboximidamide], for which the concentration for half-maximal inhibition (IC50) was 41 nM.
Still for that read-out and setting: then `CC(=O)N1CCC(CCn2c(Sc3cc4c(cc3C#N)OCO4)nc3c(N)ncnc32)CC1` [Example 620, 6-({9-[2-(1-Acetylpiperidin-4-yl)ethyl]-6-amino-9 H-purin-8-yl}thio)-1,3-benzodioxole-5-carbonitrile], with 170 nM; and `CC(=O)N1CCC(CCn2cnc(N)c3nc(Sc4cc5c(cc4C#N)OCO5)nc2-3)CC1` [Example 621, 6-({3-[2-(1-Acetylpiperidin-4-yl)ethyl]-6-amino-3 H-purin-8-yl}thio)-1,3-benzodioxole-5-carbonitrile], with > 5000 nM; and `COc1cc(C#N)c(Sc2nc3c(N)ncnc3n2CCC2CCN(C(C)=O)CC2)cc1OC` [Example 622, 2-({9-[2-(1-Acetylpiperidin-4-yl)ethyl]-6-amino-9 H-purin-8-yl}thio)-4,5-dimethoxybenzonitrile], with > 5000 nM.
On the same count and under the same terms, then `COc1cc(C#N)c(Sc2nc3c(N)ncn(CCC4CCN(C(C)=O)CC4)c-3n2)cc1OC` [Example 623, 2-({3-[2-(1-Acetylpiperidin-4-yl)ethyl]-6-amino-3 H-purin-8-yl}thio)-4,5-dimethoxybenzonitrile], with > 4000 nM; and `COCc1cc2c(cc1Sc1nc3c(N)ncnc3n1CCC1CCN(C=O)CC1)OCO2` [Example 624, 4-[2-(6-Amino-8-{[6-(methoxymethyl)-1,3-benzodioxol-5-yl]thio}-9 H-purin-9-yl)ethyl]piperidine-1-carbaldehyde], with 580 nM; and `C#CCN1CCC(CCn2c(Sc3cc4c(cc3Br)OCO4)nc3c(N)ncnc32)CC1` [Example 625, 8-[(6-Bromo-1,3-benzodioxol-5-yl)thio]-9-[2-(1-prop-2-yn-1-ylpiperidin-4-yl)ethyl]-9 H-purin-6-amine], with 110 nM.
The same measure, in the same setting: then `CCC(CC)N1CCN(CCn2c(Sc3cc(OC)ccc3OC)nc3c(N)ncnc32)CC1` [Example 627, 8-[(2,5-Dimethoxyphenyl)thio]-9-{2-[4-(1-ethylpropyl)piperazin-1-yl]ethyl}-9 H-purin-6-amine], with > 8000 nM; and `COc1ccc(OC)c(Sc2nc3c(N)ncnc3n2CCN2CCN(C(C)=O)CC2)c1` [Example 629, 9-[2-(4-Acetylpiperazin-1-yl)ethyl]-8-[(2,5-dimethoxyphenyl)thio]-9 H-purin-6-amine], with > 25000 nM; and `COc1ccc(OC)c(Sc2nc3c(N)ncn(CCN4CCN(C(C)=O)CC4)c-3n2)c1` [Example 630, 3-[2-(4-Acetylpiperazin-1-yl)ethyl]-8-[(2,5-dimethoxyphenyl)thio]-3 H-purin-6-amine], with 9000 nM.
The compound `COc1ccc(OC)c(Sc2nc3c(N)ncnc3n2CCN2CCN(C)CC2)c1` [Example 631, 8-[(2,5-Dimethoxyphenyl)thio]-9-[2-(4-methylpiperazin-1-yl)ethyl]-9 H-purin-6-amine] registered an IC50 of 2000 nM. Against the preceding compound, the IC50 is about 4.5-fold lower.
Take `Nc1ncnc2c1nc(Sc1cc3c(cc1Br)OCO3)n2CCN1CCN(C2CCCC2)CC1` [Example 632, 8-[(6-Bromo-1,3-benzodioxol-5-yl)thio]-9-[2-(4-cyclopentylpiperazin-1-yl)ethyl]-9 H-purin-6-amine]: the IC50 is > 3000 nM.
`CC(C)(C)C(=O)N1CCN(CCn2c(Sc3cc4c(cc3Br)OCO4)nc3c(N)ncnc32)CC1` [Example 633, 8-[(6-Bromo-1,3-benzodioxol-5-yl)thio]-9-{2-[4-(2,2-dimethylpropanoyl)piperazin-1-yl]ethyl}-9 H-purin-6-amine] showed an IC50 of 1500 nM.
Compound `COc1ccc(OC)c(Sc2nc3c(N)ncnc3n2CCN2CCNC(=O)C2)c1` [Example 634, 4-(2-{6-Amino-8-[(2,5-dimethoxyphenyl)thio]-9 H-purin-9-yl}ethyl)piperazin-2-one] had an IC50 of 8100 nM.
As to `CC(C)(C)OC(=O)N1CCCC(CCCn2c(Sc3cc4c(cc3Br)OCO4)nc3c(N)ncnc32)C1` (centres unmarked) [Example 637, tert-Butyl 3-(3-{6-amino-8-[(6-bromo-1,3-benzodioxol-5-yl)thio]-9 H-purin-9-yl}propyl)piperidine-1-carboxylate], the IC50 is > 25000 nM.
Same read-out and setting: then `CC(C)(C)OC(=O)N1CCCCC1CCCn1c(Sc2cc3c(cc2Br)OCO3)nc2c(N)ncnc21` (centres unmarked) [Example 638, tert-Butyl 2-(3-{6-amino-8-[(6-bromo-1,3-benzodioxol-5-yl)thio]-9 H-purin-9-yl}propyl)piperidine-1-carboxylate], with > 25000 nM.
Same read-out and setting: then `CC(C)(C)OC(=O)N1CCC(Cn2c(Sc3cc4c(cc3Br)OCO4)nc3c(N)ncnc32)CC1` [Example 639, tert-Butyl 4-({6-amino-8-[(6-bromo-1,3-benzodioxol-5-yl)thio]-9 H-purin-9-yl}methyl)piperidine-1-carboxylate], with 900 nM; and `CC(C)(C)OC(=O)N1CCCC(Cn2c(Sc3cc4c(cc3Br)OCO4)nc3c(N)ncnc32)C1` (centres unmarked) [Example 641, tert-Butyl 3-({6-amino-8-[(6-bromo-1,3-benzodioxol-5-yl)thio]-9 H-purin-9-yl}methyl)piperidine-1-carboxylate], with 1100 nM.
For `CCOP(=O)(OCC)N1CCCCC1CCn1c(Sc2cc3c(cc2Br)OCO3)nc2c(N)ncnc21` (centres unmarked) [Example 643, Diethyl [2-(2-{6-amino-8-[(6-bromo-1,3-benzodioxol-5-yl)thio]-9 H-purin-9-yl}ethyl)piperidin-1-yl]phosphonate], the IC50 amounted to 5000 nM.
The compound `CCOP(=O)(OCC)N1CCC(CCn2c(Sc3cc4c(cc3Br)OCO4)nc3c(N)ncnc32)CC1` [Example 644, Diethyl [4-(2-{6-amino-8-[(6-bromo-1,3-benzodioxol-5-yl)thio]-9 H-purin-9-yl}ethyl)piperidin-1-yl]phosphonate] came in with a concentration for half-maximal inhibition (IC50) of 200 nM.
With `CC(C)(C)OC(=O)CN1CCCCC1CCn1c(Sc2cc3c(cc2Br)OCO3)nc2c(N)ncnc21` (centres unmarked) [Example 645, tert-Butyl [2-(2-{6-amino-8-[(6-bromo-1,3-benzodioxol-5-yl)thio]-9 H-purin-9-yl}ethyl)piperidin-1-yl]acetate], the concentration for half-maximal inhibition (IC50) is 450 nM. This IC50 is about 2.2-fold higher than that of the compound before.

Values taken from US7595401B2, “Therapeutic compounds and their use in cancer” (Myriad Pharmaceuticals, Inc., priority 2006, dated 2009).
